Data taken from US20050282743A1, “Molecular interactions in cells” (Arbor Vita Corporation, priority 2001, published 2005).
Ends that are not written are not given here. Peptide text beside a SMILES is read from it. * marks the point of attachment. Biotin = O=C1N[C@H]2[C@H](CS[C@H]2CCCCC(=O)*)N1

What was measured:
[1] = target: T1, PDZ protein (GST-PDZ fusion) (Homo sapiens, UniProt Q9Y6N9); assay: G' assay (10 uM PL peptide), results of TABLE 7 and TABLE 12; type: binding; details: PDZ PDZ-73, PDZ Domain 2
T1 construct: made in house; host or cells: E. coli (DH5alpha, BL21 or JM109)
How it was run: (§1)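 Binding classes derive from A450 nm of bound biotin-tagged PL peptide. A score of 5 needs A450 above 4 in more than two repeats.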

[2] = target: T2, PDZ protein (GST-PDZ fusion) (Homo sapiens, UniProt Q9BXL6); assay: as above; type: binding; details: PDZ CARD14, PDZ Domain 1
T2 construct: made in house; host or cells: E. coli (DH5alpha, BL21 or JM109)
T2 sequence (Q9BXL6 1-1004): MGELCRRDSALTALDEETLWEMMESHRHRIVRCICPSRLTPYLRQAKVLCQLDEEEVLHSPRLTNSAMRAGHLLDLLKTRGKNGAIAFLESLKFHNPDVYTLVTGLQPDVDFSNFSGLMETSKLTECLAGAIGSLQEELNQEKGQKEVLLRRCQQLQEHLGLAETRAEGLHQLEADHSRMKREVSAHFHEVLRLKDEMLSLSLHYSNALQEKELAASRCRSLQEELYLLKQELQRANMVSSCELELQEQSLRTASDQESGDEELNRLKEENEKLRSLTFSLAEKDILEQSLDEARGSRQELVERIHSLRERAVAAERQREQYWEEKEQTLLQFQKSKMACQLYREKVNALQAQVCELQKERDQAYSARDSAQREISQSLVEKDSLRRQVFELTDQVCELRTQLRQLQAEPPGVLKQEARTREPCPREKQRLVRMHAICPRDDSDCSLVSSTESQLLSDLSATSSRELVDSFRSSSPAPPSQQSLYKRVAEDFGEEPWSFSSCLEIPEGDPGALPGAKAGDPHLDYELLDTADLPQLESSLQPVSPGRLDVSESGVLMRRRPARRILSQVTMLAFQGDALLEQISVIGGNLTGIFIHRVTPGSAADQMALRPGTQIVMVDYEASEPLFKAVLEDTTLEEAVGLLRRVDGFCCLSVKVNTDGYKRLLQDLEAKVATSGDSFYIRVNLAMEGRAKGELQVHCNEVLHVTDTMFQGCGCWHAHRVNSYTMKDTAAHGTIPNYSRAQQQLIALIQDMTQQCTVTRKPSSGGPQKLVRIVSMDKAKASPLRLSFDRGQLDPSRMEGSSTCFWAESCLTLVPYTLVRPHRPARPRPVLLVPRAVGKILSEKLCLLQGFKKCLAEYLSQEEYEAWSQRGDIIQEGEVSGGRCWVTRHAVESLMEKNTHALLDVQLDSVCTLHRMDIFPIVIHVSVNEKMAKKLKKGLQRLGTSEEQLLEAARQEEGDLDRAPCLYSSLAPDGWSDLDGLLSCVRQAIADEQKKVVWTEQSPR
How it was run: as §1

T1 sequence (Q9Y6N9 whole entry, the tested form may be a part): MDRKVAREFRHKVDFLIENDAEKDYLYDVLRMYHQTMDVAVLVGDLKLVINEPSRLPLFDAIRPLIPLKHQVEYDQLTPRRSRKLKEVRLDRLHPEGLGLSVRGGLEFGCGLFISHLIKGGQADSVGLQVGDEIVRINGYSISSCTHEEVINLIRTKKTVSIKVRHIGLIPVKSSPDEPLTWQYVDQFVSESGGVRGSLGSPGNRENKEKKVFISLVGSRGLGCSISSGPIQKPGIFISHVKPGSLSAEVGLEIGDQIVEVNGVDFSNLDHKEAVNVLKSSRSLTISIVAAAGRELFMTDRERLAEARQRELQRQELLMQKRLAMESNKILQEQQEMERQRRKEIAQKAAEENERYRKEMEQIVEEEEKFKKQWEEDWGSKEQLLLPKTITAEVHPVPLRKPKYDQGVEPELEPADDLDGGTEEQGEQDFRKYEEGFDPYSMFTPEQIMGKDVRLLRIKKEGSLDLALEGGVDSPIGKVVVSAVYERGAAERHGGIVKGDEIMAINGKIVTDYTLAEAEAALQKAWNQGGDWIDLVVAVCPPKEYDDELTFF

Row | Compound | Classification [2] | also measured
1 | CSCC[C@H](NC(=O)[C@H](C)NC(=O)[C@H](CCCNC(=N)N)NC(=O)CNC(=O)[C@@H](NC(=O)[C@H](Cc1c[nH]c2ccccc12)NC(=O)[C@H](CCCNC(=N)N)NC(=O)CNC(=O)CCCC[C@@H]1SC[C@@H]2NC(=O)N[C@@H]21)[C@@H](C)O)C(=O)N[C@@H](CO)C(=O)N[C@@H](C)C(=O)N[C@@H](Cc1c[nH]c2ccccc12)C(=O)N[C@@H](CCCCN)C(=O)N1CCC[C@H]1C(=O)N[C@H](C(=O)N[C@@H](CCCNC(=N)N)C(=O)N[C@@H](CCCNC(=N)N)C(=O)N[C@@H](CCC(=O)O)C(=O)N[C@H](C(=O)N[C@@H](CCC(=O)O)C(=O)N[C@H](C(=O)O)C(C)C)[C@@H](C)O)[C@@H](C)O [HPV E6 #35 (modified)] (Biotin-GRWTGRAMSAWKPTRRETEV-OH; C-terminus assumed) | – | Classification ([1]; PL peptide 10 uM): 2 (A450 nm 1-2)
2 | A2AC_HUMAN (Modified) (Biotin-DFRPSFKHILFRRARRGFRQ; not fully specified) | 5 (A450 nm of 4 more than 2× repeated) | –
3 | CC[C@H](C)[C@H](NC(=O)CNC(=O)[C@H](CO)NC(=O)[C@H](Cc1ccccc1)NC(=O)[C@@H](NC(=O)[C@H](CS)NC(=O)CNC(=O)CNC(=O)[C@H](C)NC(=O)[C@@H]1CCCN1C(=O)[C@@H](NC(=O)[C@@H]1CCCN1C(=O)CCCC[C@@H]1SC[C@@H]2NC(=O)N[C@@H]21)[C@@H](C)CC)[C@@H](C)O)C(=O)N[C@@H](Cc1ccccc1)C(=O)N1CCC[C@H]1C(=O)N[C@H](C(=O)N[C@@H](CC(C)C)C(=O)N[C@H](C(=O)N[C@@H](CO)C(=O)N1CCC[C@H]1C(=O)N[C@@H](CC(C)C)C(=O)O)[C@@H](C)O)[C@@H](C)O [KIA 1481] (Biotin-PIPAGGCTFSGIFPTLTSPL-OH; C-terminus assumed) | – | Classification [1]: 1 (A450 nm 0-1)
4 | A2AA_HUMAN (modified) (Biotin-HDFRRAFKKILARGDRKRIV; not fully specified) | 1 (A450 nm 0-1) | –
